Results published in patent US12611415B2, “Methods and compounds for treatment of metabolic disease” (Monash University, priority 2019, dated 2026).

How the values were obtained:
[1] = test system: LECs from adult human skin (HMLEC-dLyAd); assay: Lymphatic endothelial cell (LEC) migration scratch assay with HFD-lymph; assay type: cell-based; conditions: 2% HFD-lymph; celecoxib 20 μM, MAZ51 5 μM
Procedure: LECs from adult human skin (HMLEC-dLyAd) were obtained from Lonza (Australia) at the 3rd passage. Cells were thawed and expanded in a T-75 flask at a minimum density of 500,000 cells per flask. Cells were grown in EGM-2MV BulletKit™ medium (CC-3162, Lonza, Australia), which consisted of EBM-2 basal medium supplemented with an EGM-2 SingleQuots™ kit (Lonza, Australia). Flasks were incubated at 37° C. and 5% CO2, and media was changed 24 h after seeding and then every 48 h. Cells were grown to 70-80% confluence and split every 4-5 days. For all experiments, cells were seeded onto plates or coverslips pre-coated with rat tail collagen Type I (50 μg/ml) for 1 h at 37° C. Cells were allowed to grow to 100% confluence (which typically occurred 1.5-2 days after seeding in a cell culture plate) prior to the start of experiments.
Once the LECs reached confluence, the impact of lymph fluid on LEC migration was assessed using a standard scratch assay. […]
Images taken at several time points after wounding (0, 12 and 24 hours) were analyzed using the Fiji distribution of ImageJ to determine the rate of LEC migration over the area of the scratched wound. To enable quantification of the area of the scratch wound, the brightness and contrast of the images was first adjusted to improve the visibility. An outline of the wound was manually drawn and the area of the wound was quantified at each time point. […]

[2] = target: T1, VEGF receptor (VEGFR)-3 (Homo sapiens, UniProt P35916); conditions: endothelial cell lines, including cultured lymphatic endothelial cell lines; cited from earlier work
T1 construct: host or cells: endothelial cell lines, including cultured lymphatic endothelial cell lines
T1 sequence (P35916 25-1363): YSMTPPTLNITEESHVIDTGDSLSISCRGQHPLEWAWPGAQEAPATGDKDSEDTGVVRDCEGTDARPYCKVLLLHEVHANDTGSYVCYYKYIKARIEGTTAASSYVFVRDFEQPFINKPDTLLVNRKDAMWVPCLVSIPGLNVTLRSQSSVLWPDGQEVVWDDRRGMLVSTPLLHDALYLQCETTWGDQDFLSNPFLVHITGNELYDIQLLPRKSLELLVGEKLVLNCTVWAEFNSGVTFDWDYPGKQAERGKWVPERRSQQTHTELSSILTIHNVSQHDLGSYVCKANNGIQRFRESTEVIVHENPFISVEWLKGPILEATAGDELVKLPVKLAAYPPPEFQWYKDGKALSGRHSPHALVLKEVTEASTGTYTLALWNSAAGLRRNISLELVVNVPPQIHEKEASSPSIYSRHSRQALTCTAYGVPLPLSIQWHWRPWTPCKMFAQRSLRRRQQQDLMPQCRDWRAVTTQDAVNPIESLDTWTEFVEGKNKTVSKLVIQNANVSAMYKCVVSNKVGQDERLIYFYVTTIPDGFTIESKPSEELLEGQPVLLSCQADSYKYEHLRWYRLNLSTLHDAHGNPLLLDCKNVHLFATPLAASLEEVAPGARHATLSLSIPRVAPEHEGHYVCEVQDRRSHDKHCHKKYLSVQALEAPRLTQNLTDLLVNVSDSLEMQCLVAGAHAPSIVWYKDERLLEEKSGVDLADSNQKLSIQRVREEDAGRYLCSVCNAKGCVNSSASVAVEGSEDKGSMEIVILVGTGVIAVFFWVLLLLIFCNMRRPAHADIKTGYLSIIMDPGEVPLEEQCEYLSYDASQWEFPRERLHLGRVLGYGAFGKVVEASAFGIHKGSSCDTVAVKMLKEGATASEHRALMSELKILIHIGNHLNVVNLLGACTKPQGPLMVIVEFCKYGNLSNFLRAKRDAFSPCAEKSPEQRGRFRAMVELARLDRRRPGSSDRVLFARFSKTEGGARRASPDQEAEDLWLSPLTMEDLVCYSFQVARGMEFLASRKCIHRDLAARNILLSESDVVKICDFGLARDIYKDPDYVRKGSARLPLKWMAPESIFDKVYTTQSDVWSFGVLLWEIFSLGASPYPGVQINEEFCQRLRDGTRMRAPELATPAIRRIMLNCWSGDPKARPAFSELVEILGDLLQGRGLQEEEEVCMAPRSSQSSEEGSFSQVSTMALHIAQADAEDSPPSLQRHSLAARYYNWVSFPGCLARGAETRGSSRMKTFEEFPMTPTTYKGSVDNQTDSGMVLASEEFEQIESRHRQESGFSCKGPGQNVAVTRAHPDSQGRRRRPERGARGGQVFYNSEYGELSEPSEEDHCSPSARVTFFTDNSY

CN(C)c1ccc(/C=C2/C(=O)Nc3ccccc32)c2ccccc12 [MAZ51]
LEC migration induced by HFD-lymph [1]: inhibited | VEGF-C-dependent and VEGF-C-independent VEGFR-3 phosphorylation [2]: potently inhibit
